Measurements taken from patent US20190030053A1, “COMPOSITION FOR INCREASING EXPRESSION OF PGC-1alpha” (BENEBIOSIS CO., LTD., priority 2016, published 2019).

How the values were obtained:
[1] = system: mouse aortic smooth muscle cells (MASMs); assay: Mitochondrial superoxide production (MitoSOX Red) in MASMs of arteriosclerosis model mice; type: cell-based; conditions: MASMs from PGC-1α+/+ApoE−/− mice; SL added to culture liquid
Description: For the measurement of mitochondrial superoxide production, mitochondrial ROS was measured using MitoSOX Red (mitochondrial superoxide fluorescent marker). MASMs were extracted, and incubated with MitoSOX (4 μM) in the dark room at 37° C. for 20 minutes. The MitoSOX fluorescence was quantified by the cell fluorescence intensity read using a fluorescent plate reader (480 nm excitation/580 nm emission) (FIG. 19b).
In FIGS. 19a and 19b, MASMs were extracted from the model mouse (PGC-1α^+/+ApoE^−/−) control group, and the SL (3′-SL & 6′-SL) compositions were added to the culture liquid to conduct comparison.
FIGS. 19a and 19b show the measurement results of intercellular H2O2 (ROS values) (FIG. 19a) and the measurement results of mitochondrial superoxide production (FIG. 19b). MASMs were extracted from the model mice (PGC-1α^+/+ApoE^−/−), and the SL (3′-SL & 6′-SL) compositions were added to the culture liquid to conduct comparison.

PGC-1α and related genes = assay: Gene expression by body parts in skin test models; type: in vivo, mouse; conditions: HRM2 mice, oral 0.1 mg/kg/day, 10 weeks; organs and muscles
Text: In order to investigate the gene expression chages by body parts by the treatment with the SL (3′-SL & 6′-SL) compositions in skin test models, 6-week-old male skin test model (HRM2) mice (hairless appearance containing melanin) were randomly grouped into three different dietary treatment groups (8 animals per group, a total of 24 animals) below, and the diets (AIN-76A, Dyets, USA) were maintained for 10 weeks. […]
The gene expression changes by administration of the SL (3′-SL & 6′-SL) compositions were quantitatively compared for eight main organs (heart, hippocampus, brain, spinal cord, lung, liver, spleen, and kidney), three skeletal muscles (soleus muscle, quadriceps femoris muscle, and gastrocnemius muscle), and the like. RNA was extracted by TRIzol agent (Invitrogen). cDNA was synthesized by using RNA, which has been extracted as above and quantified, and a reverse transcription system (Promega, USA). The expression patterns of PGC-1α and related genes were measured by using pre-designed primers and probes (Applied Biosystems; PGC-1α, Mm00447181_m1, GAPDH, and Mm99999915_q1) for the synthesized cDNA and analysis targets (Fndc5, PGC-1α, Erra, UCP1, SOD2, and GPX1). […]

ICH models = assay: Modified limb placing test (MLPT) in intracerebral hemorrhage (ICH) models; type: in vivo, rat; conditions: first day and third day after ICH induction; intraperitoneal
Text: In order to investigate the changes in ischemic volume and modified limb placing test (MLPT) score by treatment with SL (3′-SL & 6′-SL) compositions in stroke models, 4-week-old mice were purchased from Central Lab Animal (Korea). Water was freely accessible, and a commercially available pellet feed (Dooyeul Biotech, Korea) was given for one week. Stroke models involving temporary and permanent middle cerebral artery (MCA) occlusion and intracerebral hemorrhage (ICH) were fabricated using 6-week-old male Sprague-Dawley rats (weight, average 185.3±15.8 g) and male BALB/c mice weight, average 24.6±3.8 g). […] The model was suspended at 10 cm above a table, and the stretch of the forelimbs toward the table was scored (0 points for normal stretch and 1 point for abnormal fexion). […] The evaluation results for three tasks were scored in the following manner: 0 points for normal performance, 1 point for performance with a delay (at least 2 seconds) or incomplete performance, and 2 points for no performance. […]

Structure (SMILES) | mitochondrial superoxide production [1] | expression levels of analysis targets (Fndc5, PGC-1α, Erra, UCP1, SOD2, GPX1) vs negative control (PGC-1α and related genes) | MLPT test score vs control group (neurodegeneration inhibitory effects) (ICH models)
CC(=O)N[C@H]1[C@H]([C@H](O)[C@H](O)CO)O[C@@](OC[C@H]2O[C@@H](O[C@H]3[C@H](O)[C@@H](O)[C@H](O)O[C@@H]3CO)[C@H](O)[C@@H](O)[C@H]2O)(C(=O)O)C[C@@H]1O [6′-SL, α-NeuNAc-(2→6)-β-D-Gal-(1→4)-D-Glc] | inhibited the mitochondrial superoxide production | very excellent | lower
CC(=O)N[C@H]1[C@H]([C@H](O)[C@H](O)CO)O[C@@](O[C@H]2[C@@H](O)[C@@H](CO)O[C@@H](O[C@H]3[C@H](O)[C@@H](O)C(O)O[C@@H]3CO)[C@@H]2O)(C(=O)O)C[C@@H]1O (stereo partly drawn) [3′-SL, α-NeuNAc-(2→3)-β-D-Gal-(1→4)-D-Glc] | inhibited the mitochondrial superoxide production | relatively low compared with 6′-SL | relatively low compared with 6′-SL
